In ChEMBL document CHEMBL3621078, “Synthesis, DNA binding, docking and photocleavage studies of quinolinyl chalcones” (Medchemcomm, 2014):
The source made the active and inactive calls. No cut-off for these calls is given here.

Columns and labels:
[1] = tested on: Calf thymus DNA; experiment: Binding affinity to calf thymus DNA by UV-visible absorption spectroscopy; type: nucleic-acid assay, Bos taurus; settings: for Kb: Bos taurus
[2] = tested on: Calf thymus DNA; experiment: Binding affinity to calf thymus DNA assessed as fluorescence quenching at DNA/compound ratio 4 by fluorescence spectrophotometer analysis; type: nucleic-acid assay; settings: Bos taurus
[3] = tested on: Calf thymus DNA; experiment: Binding affinity to calf thymus DNA assessed as relative viscosity after 5 mins by semimicrodilution capillary viscometer analysis; type: nucleic-acid assay; settings: Bos taurus
[4] = tested on: Escherichia coli; experiment: Photo-cleavage activity in Escherichia coli supercoiled pUC19 DNA assessed as formation of open circular form of DNA at 60 uM measured 2 hrs after UV-light irradiation by gel electrophoresis analysis
[5] = tested on: Escherichia coli; experiment: Photo-cleavage activity in Escherichia coli supercoiled pUC19 DNA assessed as formation of nicked form of DNA at 20 to 40 uM measured 2 hrs after UV-light irradiation by gel electrophoresis analysis
[6] = tested on: Escherichia coli; experiment: Photo-cleavage activity in Escherichia coli supercoiled pUC19 DNA assessed as formation of nicked form of DNA at 80 uM measured 2 hrs after UV-light irradiation by gel electrophoresis analysis
[7] = tested on: Escherichia coli; experiment: Photo-cleavage activity in Escherichia coli supercoiled pUC19 DNA assessed as formation of linear form of DNA at 80 uM measured 2 hrs after UV-light irradiation by gel electrophoresis analysis
[8] = tested on: Escherichia coli; experiment: Photo-cleavage activity in Escherichia coli supercoiled pUC19 DNA assessed as formation of open circular form of DNA at 40 uM measured 2 hrs after UV-light irradiation by gel electrophoresis analysis
[9] = tested on: Escherichia coli; experiment: Photo-cleavage activity in Escherichia coli supercoiled pUC19 DNA assessed as formation of open circular form of DNA at 80 uM measured 2 hrs after UV-light irradiation by gel electrophoresis analysis
[10] = tested on: Escherichia coli; experiment: Photo-cleavage activity in Escherichia coli supercoiled pUC19 DNA assessed as formation of open circular form of DNA at 140 uM measured 2 hrs after UV-light irradiation by gel electrophoresis analysis

| Compound | Kb [1] | Activity [2] | Activity [3] | Activity [4] | Activity [5] | Activity [6] | Activity [7] | Activity [8] | Activity [9] | Activity [10] | Ki [1] |
| --- | --- | --- | --- | --- | --- | --- | --- | --- | --- | --- | --- |
| O=C(/C=C/c1cc2ccccc2nc1Cl)c1ccc(Cl)cc1 | 5.13 ×10⁴ /M | Active | Active | 54% | 8% | 70% | 24% |  |  |  | 562 nM |
| COc1ccc(C(=O)/C=C/c2cc3ccccc3nc2Cl)cc1 | 2.8 ×10⁴ /M | Active | Active | 52% | 8% | 70% | 24% |  |  | 58% |  |
| O=C(/C=C/c1cc2ccccc2nc1Cl)c1ccccc1 | 5.2 ×10⁴ /M | Active | Active | 50% | 8% | 70% | 24% |  |  |  | 572 nM |
| CNc1ccc(C(=O)/C=C/c2cc3ccccc3nc2Cl)cc1 | 3.5 ×10⁴ /M |  |  | 57% | 8% | 40% | 24% |  | 40% |  |  |

The next lines start with results.

| Kb [1] | Activity [2] | Activity [3] | Activity [4] | Activity [5] | Activity [6] | Activity [7] | Activity [8] | Activity [9] | Activity [10] | Compound | Ki [1] |
| --- | --- | --- | --- | --- | --- | --- | --- | --- | --- | --- | --- |
| 1.9 ×10⁴ /M | Active | Active | 53% | 8% | 70% | 24% | 24% | 70% |  | O=C(/C=C/c1cc2ccccc2nc1Cl)c1ccc(O)cc1 |  |
| 4.2 ×10⁴ /M | Active | Active | 55% | 8% | 70% | 24% |  |  |  | O=C(/C=C/c1cc2ccccc2nc1Cl)c1ccc(Br)cc1 | 468 nM |
| 4.91 ×10⁴ /M | Active | Active | 56% | 8% | 70% | 24% |  |  |  | O=C(/C=C/c1cc2ccccc2nc1Cl)c1ccc([N+](=O)[O-])cc1 | 531 nM |
| 4.9 ×10⁴ /M | Active | Active | 51% | 8% | 70% | 24% |  |  |  | Cc1ccc(C(=O)/C=C/c2cc3ccccc3nc2Cl)cc1 | 540 nM |
